Tested on: panel of 55 breast cancer cell lines
Test: Cell growth inhibition assay (Cell Titer Glo, 72 h, 9 doses; GI50, TGI, LC50)
Format: cell-based, human
Conditions: value is the negative log10 of mol/L
[1] = AU565 cell line, censored GI50 values
[2] = BT474 cell line, censored GI50 values
[3] = BT483 cell line, censored GI50 values
[4] = CAMA1 cell line, censored GI50 values
[5] = HCC38 cell line, censored GI50 values
[6] = HCC70 cell line, censored GI50 values
[7] = HCC1143 cell line, censored GI50 values
[8] = HCC1187 cell line, censored GI50 values
[9] = HCC1395 cell line, censored GI50 values
[10] = HCC1419 cell line, censored GI50 values
[11] = HCC1428 cell line, censored GI50 values
[12] = HCC1500 cell line, censored GI50 values
[13] = HCC1806 cell line, censored GI50 values
[14] = HCC1937 cell line, censored GI50 values
[15] = HCC1954 cell line, censored GI50 values
[16] = HCC2185 cell line, censored GI50 values
[17] = HCC3153 cell line, censored GI50 values
[18] = MCF7 cell line, censored GI50 values
[19] = MDAMB134VI cell line, censored GI50 values
[20] = MDAMB157 cell line, censored GI50 values
[21] = MDAMB175VII cell line, censored GI50 values
[22] = MDAMB231 cell line, censored GI50 values
[23] = MDAMB361 cell line, censored GI50 values
[24] = MDAMB415 cell line, censored GI50 values
[25] = MDAMB436 cell line, censored GI50 values
[26] = MDAMB453 cell line, censored GI50 values
[27] = MDAMB468 cell line, censored GI50 values
[28] = SKBR3 cell line, censored GI50 values
[29] = SUM149PT cell line, censored GI50 values
[30] = SUM159PT cell line, censored GI50 values
[31] = SUM185PE cell line, censored GI50 values
[32] = SUM1315MO2 cell line, censored GI50 values

SMILES: C[C@@H](Oc1cc(-n2cnc3ccc(CN4CCN(C)CC4)cc32)sc1C(N)=O)c1ccccc1C(F)(F)F [GSK461364A]
- GI50 (600MPE cell line, censored GI50 values): 5.16
- GI50 [1]: 8.35
- GI50 [2]: 5.07
- GI50 [3]: 5.35
- GI50 [4]: 5.17
- GI50 [5]: 7.42
- GI50 [6]: 7.01
- GI50 [7]: 7.13
- GI50 [8]: 7.48
- GI50 [9]: 8.31
- GI50 [10]: 5.12
- GI50 [11]: 5.26
- GI50 [12]: 7.89
- GI50 [13]: 7.95
- GI50 [14]: 7.51
- GI50 [15]: 8.16
- GI50 [16]: 8.26
- GI50 [17]: 7.50
- GI50 [18]: 7.82
- GI50 [19]: 7.83
- GI50 [20]: 8.98
- GI50 [21]: 5.21
- GI50 [22]: 7.68
- GI50 [23]: 8.72
- GI50 [24]: 7.08
- GI50 [25]: 7.90
- GI50 [26]: 7.97
- GI50 [27]: 8.41
- GI50 [28]: 7.78
- GI50 [29]: 7.72
- GI50 [30]: 7.49
- GI50 [31]: 5.66
- GI50 [32]: 7.51
- GI50 (cell line 600MPE): 5.16
- GI50 (cell line AU565): 8.35

SMILES: CC(C)Oc1ccc(C(=O)N[C@H](CNC(=O)CN(C)C)Cc2ccc(-c3cn4cccc([C@H](C)O)c4n3)cc2)cc1Cl [GSK923295]
- GI50 [1]: 7.62
- GI50 [2]: 5.42
- GI50 [3]: 6.44
- GI50 [4]: 7.33
- GI50 [5]: 7.32
- GI50 [6]: 7.68
- GI50 (HCC202 cell line, censored GI50 values): 7.77
- GI50 [7]: 6.77
- GI50 [8]: 7.52
- GI50 [9]: 7.33
- GI50 [10]: 5.72
- GI50 [11]: 5.21
- GI50 [12]: 7.28
- GI50 [13]: 7.34
- GI50 [14]: 7.20
- GI50 [15]: 7.62
- GI50 [16]: 7.43
- GI50 [17]: 7.22
- GI50 [18]: 5.90
- GI50 [19]: 5.50
- GI50 [20]: 7.50
- GI50 [21]: 6.76
- GI50 [22]: 7.34
- GI50 [23]: 7.42
- GI50 [24]: 7.28
- GI50 [25]: 7.59
- GI50 [26]: 6.96
- GI50 [27]: 7.61
- GI50 [28]: 7.34
- GI50 [29]: 7.17
- GI50 [30]: 7.43
- GI50 [31]: 5.42
- GI50 [32]: 7.44
- GI50 (cell line 600MPE): 4.48
- GI50 (cell line AU565): 7.62
- GI50 (cell line BT474): 5.42
- GI50 (cell line BT483): 6.44
- GI50 (cell line CAMA1): 7.33
- GI50 (cell line HCC38): 7.32
- GI50 (cell line HCC70): 7.68
- GI50 (cell line HCC202): 7.77
- GI50 (cell line HCC1143): 6.77
- GI50 (cell line HCC1187): 7.52
- GI50 (cell line HCC1395): 7.33
- GI50 (cell line HCC1419): 5.72
- GI50 (cell line HCC1428): 5.21
- GI50 (cell line HCC1500): 7.28
- GI50 (cell line HCC1806): 7.34
- GI50 (cell line HCC1937): 7.20
- GI50 (cell line HCC1954): 7.62
- GI50 (cell line HCC2185): 7.43
- GI50 (cell line HCC3153): 7.22
- GI50 (cell line MCF7): 5.90
- GI50 (cell line MDAMB134V): 5.50
- GI50 (cell line MDAMB157): 7.50
- GI50 (cell line MDAMB175V): 6.76
- GI50 (cell line MDAMB231): 7.34
- GI50 (cell line MDAMB361): 7.42
- GI50 (cell line MDAMB415): 7.28
- GI50 (cell line MDAMB436): 7.59
- GI50 (cell line MDAMB453): 6.96
- GI50 (cell line MDAMB468): 7.61
- GI50 (cell line SKBR3): 7.34
- GI50 (cell line SUM52PE): 7.64
- GI50 (cell line SUM149PT): 7.17
- GI50 (cell line SUM159PT): 7.43
- GI50 (cell line SUM185PE): 5.42
- GI50 (cell line SUM1315MO): 7.44
- GI50 (cell line UACC812): 7.92
- GI50 (cell line UACC893): 7.91
- GI50 (cell line ZR75B): 7.15
- GI50 (cell line ZR751): 6.92
- GI50 (cell line ZR7530): 7.68
